Measurements: patent US10202377B2, “3-(1H-benzo[D]imidazol-2-yl)-1H-pyrazolo[3,4-C]pyridine and therapeutic uses thereof” (Samumed, LLC, priority 2014, dated 2019)

Tested on: Wnt activity (Sp5-Luc reporter, SW480 colon carcinoma cells)
Assay: Sp5-Luc Wnt reporter gene screening assay in SW480 colon carcinoma cells
Details: Homo sapiens
Protocol: The screening assay for Wnt activity is described as follows.
SW480 colon carcinoma cells were transduced with a lentiviral vector expressing luciferase with a human Sp5 promoter consisting of a sequence of eight TCF/LEF binding sites. SW480 cells stably expressing the Sp5-Luc reporter gene and a hygromycin resistance gene were selected by treatment with 150 μg/ml of hygromycin for 7 days. These stably transduced SW480 cells were expanded in cell culture and used for all further screening activities. For Sp5-Luc reporter gene assays, the cells were plated at 10,000 cells/well in 96-well plates with growth medium containing 10% fetal calf serum and incubated overnight at 37° C. and 5% CO2. […] Compound transfer from serially diluted source plates to assay plates containing the cells was accomplished using a pintool (Multimek 96, Beckman equipped with V&P Scientific FP1S50H pins) based liquid handling protocol. This protocol used a slotted pin to transfer 50 nl of compound from a source plate well to an assay plate well containing 50 μl of cells in growth medium. […] Control wells received 50 nl of DMSO treatment for normalization and calculating IC50 values. The treated cells were incubated at 37° C. and 5% CO2 for an additional forty-two hours. Following incubation, the growth medium was removed and 50 μl of BrightGlo luminescence reagent (Promega) was added to each well of the 96-well assay plates. The plates were placed on an orbital shaker for 5 min and then luminescence was quantified on the Victor3 (Perkin Elmer) plate reader.

For `CC(C)(C)CC(=O)Nc1cncc(-c2cc3c(-c4nc5ccccc5[nH]4)n[nH]c3cn2)c1` [Compound 250, N-(5-(3-(1H-Benzo[d]imidazol-2-yl)-1H-pyrazolo[3,4-c]pyridin-5-yl)pyridin-3-yl)-3,3-dimethylbutanamide], which IC50 is on record?
The IC50 was 0.183 µM.

With `Cn1cc(-c2cc3c(-c4nc5c(-c6cccc(F)c6)cccc5[nH]4)n[nH]c3cn2)cn1` [Compound 940, 3-(4-(3-Fluorophenyl)-1H-benzo[d]imidazol-2-yl)-5-(1-methyl-1H-pyrazol-4-yl)-1H-pyrazolo[3,4-c]pyridine] as the compound, how does the IC50 read?
Its IC50 is 0.046 µM.

Which IC50 does the source give for `CCC(=O)Nc1cncc(-c2cc3c(-c4nc5c(N6CCCCC6)cccc5[nH]4)n[nH]c3cn2)c1` [Compound 157, N-(5-(3-(4-(Piperidin-1-yl)-1H-benzo[d]imidazol-2-yl)-1H-pyrazolo[3,4-c]pyridin-5-yl)pyridin-3-yl)propionamide] here?
Its IC50 is 0.0972 µM.

`CC(C)C(=O)Nc1cncc(-c2cc3c(-c4nc5c(-c6ccccc6F)cccc5[nH]4)n[nH]c3cn2)c1` [Compound 61, N-(5-(3-(4-(2-Fluorophenyl)-1H-benzo[d]imidazol-2-yl)-1H-pyrazolo[3,4-c]pyridin-5-yl)pyridin-3-yl)isobutyramide] was tested. Which IC50 did it give?
The IC50 was 0.0812 µM.

For `O=C(Nc1cncc(-c2cc3c(-c4nc5c(-c6ccoc6)cccc5[nH]4)n[nH]c3cn2)c1)C1CCC1` [Compound 306, N-(5-(3-(4-(Furan-3-yl)-1H-benzo[d]imidazol-2-yl)-1H-pyrazolo[3,4-c]pyridin-5-yl)pyridin-3-yl)cyclobutanecarboxamide], which IC50 is on record?
Its IC50 is 0.0168 µM.

Which IC50 does the source give for `CC(C)CC(=O)Nc1cncc(-c2cc3c(-c4nc5c(-c6cc(F)cc(OCCN7CCCC7)c6)cccc5[nH]4)n[nH]c3cn2)c1` [Compound 1306, N-(5-(3-(4-(3-Fluoro-5-(2-(pyrrolidin-1-yl)ethoxy)phenyl)-1H-benzo[d]imidazol-2-yl)-1H-pyrazolo[3,4-c]pyridin-5-yl)pyridin-3-yl)-3-methylbutanamide] here?
The IC50 was 1.37 µM.

Which IC50 does the source give for `Fc1cccc(-c2cccc3[nH]c(-c4n[nH]c5cnc(-c6cncc(OCc7ccccc7)c6)cc45)nc23)c1` [Compound 950, 5-(5-(Benzyloxy)pyridin-3-yl)-3-(4-(3-fluorophenyl)-1H-benzo[d]imidazol-2-yl)-1H-pyrazolo[3,4-c]pyridine] here?
The IC50 was 0.165 µM.

How did the IC50 turn out when `NC1CN(c2cncc(-c3cc4c(-c5nc6c(-c7cccc(F)c7)cccc6[nH]5)n[nH]c4cn3)n2)C1` [Compound 942, 1-(6-(3-(4-(3-Fluorophenyl)-1H-benzo[d]imidazol-2-yl)-1H-pyrazolo[3,4-c]pyridin-5-yl)pyrazin-2-yl)azetidin-3-amine] was run?
The IC50 was 0.079 µM.

Which IC50 does the source give for `CN(C)c1cncc(-c2cc3c(-c4nc5c(-c6cccs6)cccc5[nH]4)n[nH]c3cn2)c1` [Compound 319, N,N-Dimethyl-5-(3-(4-(thiophen-2-yl)-1H-benzo[d]imidazol-2-yl)-1H-pyrazolo[3,4-c]pyridin-5-yl)pyridin-3-amine] here?
The IC50 was 0.0779 µM.

Which IC50 does the source give for `Fc1cccc(-c2cccc3[nH]c(-c4n[nH]c5cnc(C6=CCNCC6)cc45)nc23)c1` [Compound 938, 3-(4-(3-Fluorophenyl)-1H-benzo[d]imidazol-2-yl)-5-(1,2,3,6-tetrahydropyridin-4-yl)-1H-pyrazolo[3,4-c]pyridine] here?
Its IC50 is 0.145 µM.

With `CC(=O)c1ccc(-c2cccc3[nH]c(-c4n[nH]c5cnc(-c6cncc(NC(=O)CC(C)(C)C)c6)cc45)nc23)s1` [Compound 406, N-(5-(3-(4-(5-Acetylthiophen-2-yl)-1H-benzo[d]imidazol-2-yl)-1H-pyrazolo[3,4-c]pyridin-5-yl)pyridin-3-yl)-3,3-dimethylbutanamide] as the compound, how does the IC50 read?
Its IC50 is 0.247 µM.

Which IC50 does the source give for `Cc1ncc(-c2cc3c(-c4nc5c(-c6cccc(F)c6)cccc5[nH]4)n[nH]c3cn2)n1C` [Compound 941, 5-(1,2-Dimethyl-1H-imidazol-5-yl)-3-(4-(3-fluorophenyl)-1H-benzo[d]imidazol-2-yl)-1H-pyrazolo[3,4-c]pyridine] here?
Its IC50 is 0.334 µM.

With `CCCC(=O)Nc1cncc(-c2cc3c(-c4nc5c(-c6ccncc6)cccc5[nH]4)n[nH]c3cn2)c1` [Compound 121, N-(5-(3-(4-(Pyridin-4-yl)-1H-benzo[d]imidazol-2-yl)-1H-pyrazolo[3,4-c]pyridin-5-yl)pyridin-3-yl)butyramide] as the compound, how does the IC50 read?
The IC50 was > 10 µM.

With `O=C(Nc1cncc(-c2cc3c(-c4nc5c(-c6ccsc6)cccc5[nH]4)n[nH]c3cn2)c1)C1CCC1` [Compound 280, N-(5-(3-(4-(Thiophen-3-yl)-1H-benzo[d]imidazol-2-yl)-1H-pyrazolo[3,4-c]pyridin-5-yl)pyridin-3-yl)cyclobutanecarboxamide] as the compound, how does the IC50 read?
Its IC50 is 0.0062 µM.

`Fc1cccc(-c2cccc3[nH]c(-c4n[nH]c5cnc(-c6cncc(OCCN7CCCC7)c6)cc45)nc23)c1` [Compound 946, 3-(4-(3-Fluorophenyl)-1H-benzo[d]imidazol-2-yl)-5-(5-(2-(pyrrolidin-1-yl)ethoxy)pyridin-3-yl)-1H-pyrazolo[3,4-c]pyridine] was tested. Which IC50 did it give?
Its IC50 is 0.58 µM.

For `Fc1cccc(-c2cccc3[nH]c(-c4n[nH]c5cnc(-c6cncc(OC7CCCCC7)c6)cc45)nc23)c1` [Compound 943, 5-(5-(Cyclohexyloxy)pyridin-3-yl)-3-(4-(3-fluorophenyl)-1H-benzo[d]imidazol-2-yl)-1H-pyrazolo[3,4-c]pyridine], which IC50 is on record?
Its IC50 is 0.56 µM.

For `O=C(CC1CCNCC1)Nc1cncc(-c2cc3c(-c4nc5c(-c6cccc(F)c6)cccc5[nH]4)n[nH]c3cn2)c1` [Compound 945, N-(5-(3-(4-(3-Fluorophenyl)-1H-benzo[d]imidazol-2-yl)-1H-pyrazolo[3,4-c]pyridin-5-yl)pyridin-3-yl)-2-(piperidin-4-yl)acetamide], which IC50 is on record?
The IC50 was > 10 µM.

How did the IC50 turn out when `CC(C)CC(=O)Nc1cncc(-c2cc3c(-c4nc5c(-c6ccc(F)s6)cccc5[nH]4)n[nH]c3cn2)c1` [Compound 340, N-(5-(3-(4-(5-Fluorothiophen-2-yl)-1H-benzo[d]imidazol-2-yl)-1H-pyrazolo[3,4-c]pyridin-5-yl)pyridin-3-yl)-3-methylbutanamide] was run?
Its IC50 is 0.0173 µM.

Which IC50 does the source give for `CC(C)CC(=O)Nc1cncc(-c2cc3c(-c4nc5c(-c6cc(F)cc(OCCN(C)C)c6)cccc5[nH]4)n[nH]c3cn2)c1` [Compound 1262, N-(5-(3-(4-(3-(2-(Dimethylamino)ethoxy)-5-fluorophenyl)-1H-benzo[d]imidazol-2-yl)-1H-pyrazolo[3,4-c]pyridin-5-yl)pyridin-3-yl)-3-methylbutanamide] here?
Its IC50 is 0.747 µM.

`CCCCC(=O)Nc1cncc(-c2cc3c(-c4nc5c(-c6ccoc6)cccc5[nH]4)n[nH]c3cn2)c1` [Compound 304, N-(5-(3-(4-(Furan-3-yl)-1H-benzo[d]imidazol-2-yl)-1H-pyrazolo[3,4-c]pyridin-5-yl)pyridin-3-yl)pentanamide] was tested. Which IC50 did it give?
Its IC50 is 0.145 µM.

Which IC50 does the source give for `O=C(CC1CCCCC1)Nc1cncc(-c2cc3c(-c4nc5c(-c6cccc(F)c6)cccc5[nH]4)n[nH]c3cn2)c1` [Compound 951, 2-Cyclohexyl-N-(5-(3-(4-(3-fluorophenyl)-1H-benzo[d]imidazol-2-yl)-1H-pyrazolo[3,4-c]pyridin-5-yl)pyridin-3-yl)acetamide] here?
Its IC50 is 0.115 µM.

For `CN(C)CC(=O)Nc1cncc(-c2cc3c(-c4nc5c(-c6cccc(F)c6)cccc5[nH]4)n[nH]c3cn2)c1` [Compound 1437, 2-(Dimethylamino)-N-(5-(3-(4-(3-fluorophenyl)-1H-benzo[d]imidazol-2-yl)-1H-pyrazolo[3,4-c]pyridin-5-yl)pyridin-3-yl)acetamide], which IC50 is on record?
The IC50 was 0.155 µM.

Which IC50 does the source give for `CC(C)C(=O)Nc1cncc(-c2cc3c(-c4nc5c(N6CCN(C)CC6)cccc5[nH]4)n[nH]c3cn2)c1` [Compound 217, N-(5-(3-(4-(4-Methylpiperazin-1-yl)-1H-benzo[d]imidazol-2-yl)-1H-pyrazolo[3,4-c]pyridin-5-yl)pyridin-3-yl)isobutyramide] here?
The IC50 was 0.355 µM.

With `Fc1cccc(-c2cccc3[nH]c(-c4n[nH]c5cnc(-c6cncc(OC7CCNCC7)c6)cc45)nc23)c1` [Compound 944, 3-(4-(3-Fluorophenyl)-1H-benzo[d]imidazol-2-yl)-5-(5-(piperidin-4-yloxy)pyridin-3-yl)-1H-pyrazolo[3,4-c]pyridine] as the compound, how does the IC50 read?
The IC50 was 1.21 µM.

How did the IC50 turn out when `CS(=O)(=O)NCc1cc(F)cc(-c2cccc3[nH]c(-c4n[nH]c5cnc(-c6cncc(NC(=O)C7CCC7)c6)cc45)nc23)c1` [Compound 436, N-(5-(3-(4-(3-Fluoro-5-(methylsulfonamidomethyl)phenyl)-1H-benzo[d]imidazol-2-yl)-1H-pyrazolo[3,4-c]pyridin-5-yl)pyridin-3-yl) cyclobutanecarboxamide] was run?
The IC50 was 0.0258 µM.

With `O=C(Nc1cncc(-c2cc3c(-c4nc5ccccc5[nH]4)n[nH]c3cn2)c1)C1CCCCC1` [Compound 256, N-(5-(3-(1H-Benzo[d]imidazol-2-yl)-1H-pyrazolo[3,4-c]pyridin-5-yl)pyridin-3-yl)cyclohexanecarboxamide] as the compound, how does the IC50 read?
The IC50 was 0.0956 µM.

Tested on: primary human fibroblasts derived from IPF patients (LL29 cells)
Assay: Inhibition of fibrosis (αSMA staining) in TGF-β1-treated primary human fibroblasts from IPF patients
Format: cell-based
Details: Fibroblast, 96 h, TGF-β1 20 ng/mL, 4 days
Protocol: The above synthesized compounds were screened using primary human fibroblasts (derived from IPF patients) treated with TGF-β1 to determine their ability to inhibit the fibrotic process.
Compound Screening: Each compound was dissolved in DMSO as a 10 mM stock and used to prepare compound source plates. […] LL29 cells were plated at 1,500 cells/well in 80 μl/well F12 medium supplemented with 1% Fetal Bovine Serum. One hour after addition of the cells, TGF-β1 (Peprotech; 20 ng/mL) was added to the plates to induce fibrosis (ref. 1 and 2 above). Wells treated with TGF-β1 and containing DMSO were used as controls. Cells were incubated at 37° C. and 5% CO2 for 4 days. Following incubation for 4 days, SYTOX green nucleic acid stain (Life Technologies [Thermo Fisher Scientific]) was added to the wells at a final concentration of 1 uM and incubated at room temperature for 30 min. Cells were then fixed using 4% formaldehyde (Electron Microscopy Sciences), washed 3 times with PBS followed by blocking and permeabilization using 3% Bovine Serum Albumin (BSA; Sigma) and 0.3% Triton X-100 (Sigma) in PBS. Cells were then stained with antibody specific to α-smooth muscle actin (aSMA; Abcam) (ref. 1 and 2 above) in 3% Bovine Serum Albumin (BSA; Sigma) and 0.3% Triton X-100 (Sigma) in PBS, and incubated overnight at 4° C. […] Dead or apoptotic cells were excluded from analysis based on positive SYTOX green staining. % of total cells positive for αSMA were counted in each well and normalized to the average of 11 wells treated with TGF-β1 on the same plate using Dotmatics' Studies Software. […] The EC50 values are reported.

Which EC50 does the source give for `CC(C)(C)CC(=O)Nc1cncc(-c2cc3c(-c4nc5ccccc5[nH]4)n[nH]c3cn2)c1` [Compound 250, N-(5-(3-(1H-Benzo[d]imidazol-2-yl)-1H-pyrazolo[3,4-c]pyridin-5-yl)pyridin-3-yl)-3,3-dimethylbutanamide] here?
The EC50 was 0.258 µM.

For `CCC(=O)Nc1cncc(-c2cc3c(-c4nc5c(N6CCCCC6)cccc5[nH]4)n[nH]c3cn2)c1` [Compound 157, N-(5-(3-(4-(Piperidin-1-yl)-1H-benzo[d]imidazol-2-yl)-1H-pyrazolo[3,4-c]pyridin-5-yl)pyridin-3-yl)propionamide], which EC50 is on record?
The EC50 was 0.099 µM.

For `CC(C)C(=O)Nc1cncc(-c2cc3c(-c4nc5c(-c6ccccc6F)cccc5[nH]4)n[nH]c3cn2)c1` [Compound 61, N-(5-(3-(4-(2-Fluorophenyl)-1H-benzo[d]imidazol-2-yl)-1H-pyrazolo[3,4-c]pyridin-5-yl)pyridin-3-yl)isobutyramide], which EC50 is on record?
Its EC50 is 0.081 µM.

`CN1CCN(c2cccc3[nH]c(-c4n[nH]c5cnc(-c6cncc(CN7CCCCC7)c6)cc45)nc23)CC1` [Compound 223, 3-(4-(4-Methylpiperazin-1-yl)-1H-benzo[d]imidazol-2-yl)-5-(5-(piperidin-1-ylmethyl)pyridin-3-yl)-1H-pyrazolo[3,4-c]pyridine] was tested. Which EC50 did it give?
Its EC50 is 2.61 µM.
